This note sets out measurements from ChEMBL document CHEMBL1201862, “PubChem BioAssay data set” (2004).

Common to all, as to assay: DTP human tumour cell line panel, 48 h
The subject of experiment [1] is M19-MEL.
Experiment [2] relates to DMS-114.
The test system of experiment [3] is LXFL 529.
Experiment [4] deals with DMS-273.
In experiment [5] the test system is RXF 631.
For experiment [6], the system named is XF498.
For experiment [7], the system named is HOP-18.
Experiment [8] has as its system SNB-78.

Molecules are shown by their SMILES.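 Compound exposure: 48 hours, 5 concentrations, 96-well plates. GI50 is the concentration that inhibits growth by half.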 Activity calls are given as the source filed them. Rule as the data show it: active = GI50 up to about 1.1 µM and inactive = higher.

The term GI50 denotes the concentration that inhibits growth by half.

On to `CC(C)C(NCc1c2ccccc2nc2ccccc12)C(=O)O` (centres undefined), for which the GI50 in experiment [1] is 33 µM (inactive); in experiment [2] it was 27.2 µM (inactive); in experiment [3] it was 39 µM (inactive); in experiment [4], 32.6 µM (inactive); in experiment [5], 19.9 µM (inactive); in experiment [6], 21.1 µM (inactive).
Take `CSC1=Nc2ccccc2N=C(c2ccccc2)C1`: the GI50 in experiment [7] is > 100 µM (inactive); in experiment [1] it was 54.6 µM (inactive); in experiment [2], 21.5 µM (inactive); in experiment [3] it was 70 µM (inactive); in experiment [8], > 100 µM (inactive); in experiment [4], 39.6 µM (inactive). For the same compound, the GI50 in experiment [5] was 46.7 µM (inactive); in experiment [6] it was 39.4 µM (inactive).
For the compound `COc1ccc(C(=O)CC(=O)C(=O)Nc2ccc(C)c(C)c2)cc1`, the GI50 was > 70.8 µM (inactive) in experiment [7]; > 100 µM (inactive) in experiment [1]; 22.8 µM (inactive) in experiment [2]; > 64.9 µM (inactive) in experiment [3]; > 100 µM (inactive) in experiment [8]; 40 µM (inactive) in experiment [4]. Further, the GI50 in experiment [5] was > 68.2 µM (inactive).
`CC(=O)NC1C(OCc2ccccc2)OC(COC(=O)CCCCCNc2ccc([N+](=O)[O-])c3[nH]c4ccc(O)cc4c(=O)c23)C(O)C1OC(C)C(=O)N[C@@H](C)C(=O)N[C@H](CCC(=O)OCc1ccccc1)C(N)=O` (some centres undefined): the GI50 in experiment [7] is 1.71 µM (inactive); in experiment [1], 5.68 µM (inactive); in experiment [3], 1.5 µM (inactive); in experiment [8] it was 3.16 µM (inactive); in experiment [4], 1.49 µM (inactive); in experiment [5], 0.759 µM (active).
For `O=[N+]([O-])c1ccc(-n2nnc(C3=NCCN3)c2-c2ccc(Cl)cc2)cc1`, the GI50 in experiment [7] was > 100 µM (inactive); in experiment [1] it was > 100 µM (inactive); in experiment [2] it was 77.1 µM (inactive); in experiment [3], > 100 µM (inactive); in experiment [8], > 100 µM (inactive); in experiment [4] it was > 100 µM (inactive). Also, the GI50 in experiment [6] was > 100 µM (inactive).
With `O/N=C1/C(=C/c2ccc(Cl)cc2)CCCC1C(NO)c1ccc(Cl)cc1` (centres undefined), the GI50 in experiment [7] is 20.3 µM (inactive); in experiment [1] it was 22.9 µM (inactive); in experiment [2], 24.5 µM (inactive); in experiment [3] it was 25.3 µM (inactive); in experiment [8], 21.9 µM (inactive); in experiment [4], 17.8 µM (inactive). Moreover, the results for the GI50 in experiment [5] and in experiment [6] were 18.1 µM (inactive) and 22.5 µM (inactive), respectively.
As for `CCOc1ccccc1/N=N/c1c(-c2ccccc2)nn(C(=O)CC(=O)Nc2cccc(C)c2)c1-c1ccccc1`, the GI50 in experiment [7] was > 100 µM (inactive); in experiment [1], > 100 µM (inactive); in experiment [2] it was 44.8 µM (inactive); in experiment [3] it was > 100 µM (inactive); in experiment [8] it was > 100 µM (inactive); in experiment [4], > 100 µM (inactive). Also, the GI50 is 26.2 µM (inactive) in experiment [5] and > 100 µM (inactive) in experiment [6].
For `Nc1c(-c2ccc(Br)cc2)[n+]([O-])c2ccccc2[n+]1[O-]`, the GI50 in experiment [7] is > 100 µM (inactive); in experiment [2] it was 50.9 µM (inactive); in experiment [3], > 100 µM (inactive); in experiment [8] it was > 100 µM (inactive); in experiment [4], > 100 µM (inactive); in experiment [5], > 100 µM (inactive).
Take `C[Si](C)(C)C#C[I+]c1ccccc1`: the GI50 in experiment [7] is 75.5 µM (inactive); in experiment [1] it was 31.6 µM (inactive); in experiment [2], 20.9 µM (inactive); in experiment [3] it was 28.4 µM (inactive); in experiment [8], 50.2 µM (inactive); in experiment [4], 19.8 µM (inactive). Further, the GI50 in experiment [5] is 30.1 µM (inactive); in experiment [6] it was 29.8 µM (inactive).
Take `CN(C)/C(=N/C(=S)Nc1ccccc1)SCc1ccccc1`: the GI50 is > 100 µM (inactive) in experiment [7]; 14.7 µM (inactive) in experiment [1]; 9.93 µM (inactive) in experiment [2]; 2.38 µM (inactive) in experiment [3]; > 100 µM (inactive) in experiment [8]; 51.6 µM (inactive) in experiment [4]. Also, the values for the GI50 in experiment [5] and in experiment [6] were 88.1 µM (inactive) and 24.4 µM (inactive), respectively.
On to `O=[N+]([O-])c1cccc(C2N3CCCCC3[C@@H]3c4[nH]c5ccccc5c4CCN23)c1` (some centres undefined), for which the GI50 in experiment [7] is 54.6 µM (inactive); in experiment [1], 11.9 µM (inactive); in experiment [2], 6.9 µM (inactive); in experiment [3] it was 19 µM (inactive); in experiment [8] it was 9.79 µM (inactive); in experiment [4], 11.8 µM (inactive). Further, the GI50 in experiment [6] was 14 µM (inactive).
With `c1ccc(-c2nnc(-c3nn(-c4ccccc4)c4nc5ccccc5nc34)o2)cc1`, the GI50 is 20 µM (inactive) in experiment [7]; 47.8 µM (inactive) in experiment [1]; 28.8 µM (inactive) in experiment [2]; 12.3 µM (inactive) in experiment [3]; > 100 µM (inactive) in experiment [8]; 92 µM (inactive) in experiment [4]. The GI50 in experiment [6] is 22.1 µM (inactive).
Turning to `CCCCCCC(=O)CC(=O)C(=O)Nc1ccccc1C`, the GI50 was > 100 µM (inactive) in experiment [7]; > 100 µM (inactive) in experiment [1]; > 69.7 µM (inactive) in experiment [2]; > 100 µM (inactive) in experiment [3]; > 100 µM (inactive) in experiment [8]; > 100 µM (inactive) in experiment [4]. In addition, the GI50 in experiment [5] and in experiment [6] was > 100 µM (inactive) each time.
